The record followed here is PubChem BioAssay (NCI).

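Each compound was tested at five concentrations against cells in 96-well plates for 48 hours. At the TGI there is no net growth.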

Among the test systems are A549 NSCLC; COLO 205 colon; HOP-62 NSCLC; HS 578T breast; MOLT-4 leukemia; NCI-H23 lung; OVCAR-4 ovarian; SK-MEL-28 melanoma; SR leukemia; SW-620 colon; U251 CNS; UO-31 renal.
Test in all cases: NCI tumour cell line growth inhibition, 48 h

Consider `O=C(O)c1ccccc1C(=O)NCC1S(=O)(=O)OCCOS1(=O)=O`, for which the TGI in the test with A549 NSCLC, in the test on COLO 205 colon, in the test on HOP-62 NSCLC, in the test on HS 578T breast, in the test with MOLT-4 leukemia and in the test with NCI-H23 lung was above 100 µM each time. Further, the TGI with OVCAR-4 ovarian, with SK-MEL-28 melanoma, in the test with SR leukemia, in the test with SW-620 colon, with U251 CNS and in the test on UO-31 renal was above 100 µM each time.
Take `Cc1ccc2c(c1)C(=C(C#N)C#N)CCCS2(=O)=O`: the TGI with A549 NSCLC, with COLO 205 colon, with HOP-62 NSCLC, with HS 578T breast, in the test on MOLT-4 leukemia and with NCI-H23 lung was above 100 µM in each case. Further, the TGI in the test with OVCAR-4 ovarian, in the test with SK-MEL-28 melanoma, in the test with SR leukemia, in the test with SW-620 colon, with U251 CNS and in the test with UO-31 renal was above 100 µM throughout.
`c1csc(-c2nn3c(C45CC6CC(CC(C6)C4)C5)nnc3s2)c1`: the TGI with A549 NSCLC, in the test with COLO 205 colon, in the test with HOP-62 NSCLC, with HS 578T breast, with MOLT-4 leukemia and with NCI-H23 lung was above 100 µM each time. Besides, the TGI in the test on OVCAR-4 ovarian, with SK-MEL-28 melanoma, in the test with SR leukemia, in the test with SW-620 colon, in the test with U251 CNS and in the test with UO-31 renal was above 100 µM each time.
Regarding `COc1ccc2c3c1OC1C(F)C=CC4(O)C(C2)NCCC314` (stereo not drawn), the TGI with A549 NSCLC was 23.1 µM; in the test with COLO 205 colon, 3.12 µM; in the test with HOP-62 NSCLC it was 7.13 µM; in the test on HS 578T breast it was 5.83 µM; with MOLT-4 leukemia, 3.76 µM; with NCI-H23 lung it was 6.64 µM. The TGI in the test on OVCAR-4 ovarian was 7.05 µM; in the test on SK-MEL-28 melanoma, 10.7 µM; in the test on SR leukemia it was 4.42 µM; with SW-620 colon, 7.71 µM; in the test with U251 CNS, 6.59 µM; in the test on UO-31 renal, 4.62 µM.
Take `Cc1cc(S(=O)(=O)Nc2n[nH]c(-c3ccc(Cl)cc3)n2)c(SSc2cc(Cl)c(C)cc2S(=O)(=O)Nc2n[nH]c(-c3ccc(Cl)cc3)n2)cc1Cl`: the TGI in the test with A549 NSCLC was above 100 µM; in the test on COLO 205 colon, 67.4 µM; in the test on HOP-62 NSCLC, above 100 µM; with HS 578T breast it was above 100 µM; with MOLT-4 leukemia it was 54.2 µM; in the test on NCI-H23 lung, above 100 µM. Besides, the TGI with OVCAR-4 ovarian was above 100 µM; in the test with SK-MEL-28 melanoma it was 96.4 µM; in the test on SR leukemia it was 55.3 µM; in the test on SW-620 colon it was 73.5 µM; with U251 CNS, 78.6 µM; in the test on UO-31 renal it was 81.9 µM.
Regarding `Cc1ccc2c(=O)cc(-c3sccc3C)[nH]c2n1`, the TGI in the test with COLO 205 colon was 1.41 µM; in the test on HOP-62 NSCLC it was above 100 µM; in the test on HS 578T breast it was 13.6 µM; in the test with MOLT-4 leukemia, above 27.8 µM; with OVCAR-4 ovarian, above 100 µM; in the test with SR leukemia, above 61.1 µM. The TGI in the test with U251 CNS was above 33.6 µM; in the test with UO-31 renal, 23.8 µM.
Regarding `N#C/C(=C\c1ccc(F)cc1)c1nc(-c2cc3ccccc3oc2=O)cs1`, the TGI is above 100 µM in the test on A549 NSCLC; above 100 µM with COLO 205 colon; 25.7 µM in the test with HOP-62 NSCLC; 56.7 µM in the test with HS 578T breast; above 100 µM with MOLT-4 leukemia; above 100 µM in the test with OVCAR-4 ovarian. Also, the TGI was above 100 µM in the test on SK-MEL-28 melanoma; above 100 µM in the test with SR leukemia; above 100 µM in the test with SW-620 colon; 61.4 µM with U251 CNS; 97.9 µM with UO-31 renal.
With `COc1ccc2c(c1)Cc1c(NCCN(C)C)ccc(C(=O)NCCCN(C)CCCNC(=O)c3ccc(NCCN(C)C)c4c3Nc3ccc(OC)cc3C4)c1N2`, the TGI in the test on A549 NSCLC came to 0.512 µM; in the test on COLO 205 colon, 0.207 µM; in the test with HOP-62 NSCLC, 1.02 µM; in the test on HS 578T breast, 0.332 µM; with MOLT-4 leukemia, 2.62 µM; in the test with NCI-H23 lung, 0.581 µM. Moreover, the TGI in the test with OVCAR-4 ovarian amounted to 0.448 µM; in the test with SK-MEL-28 melanoma, 1.46 µM; in the test on SR leukemia it was 0.502 µM; in the test with SW-620 colon, 8.65 µM; with U251 CNS, 1.1 µM; with UO-31 renal it was 14.2 µM.
Take `CCOC(=O)c1cc(C2CCN(c3ccccc3)C2=O)c(/C(O)=C/C(C)=O)[nH]1` (stereo not drawn): the TGI with A549 NSCLC, in the test on COLO 205 colon, with HOP-62 NSCLC, with HS 578T breast, in the test with MOLT-4 leukemia and in the test on NCI-H23 lung was above 100 µM in each case. The TGI in the test on OVCAR-4 ovarian, in the test with SK-MEL-28 melanoma, in the test with SR leukemia, in the test with SW-620 colon, with U251 CNS and with UO-31 renal was above 100 µM throughout.
For `COc1ccc(C2SC(N)=Nc3c2c(C)nn3C(=O)c2ccccc2O)cc1OC` (stereo not drawn), the TGI in the test with A549 NSCLC was above 10 µM; with COLO 205 colon it was above 10 µM; in the test with HOP-62 NSCLC, above 10 µM; in the test with HS 578T breast it was 5.11 µM; in the test with MOLT-4 leukemia, above 10 µM; in the test on NCI-H23 lung it was above 10 µM. The TGI in the test on OVCAR-4 ovarian, with SK-MEL-28 melanoma, with SR leukemia, in the test with SW-620 colon, in the test on U251 CNS and in the test on UO-31 renal was above 10 µM in each case.
On to `Cc1c(C)c2ccc(OCC(O)COC(C)C)c(C)c2oc1=O` (stereo not drawn), for which the TGI with A549 NSCLC is above 100 µM; with COLO 205 colon, above 10 µM; in the test with HOP-62 NSCLC it was 58.6 µM; in the test with HS 578T breast, above 100 µM; in the test on MOLT-4 leukemia, above 10 µM; in the test on NCI-H23 lung, above 100 µM. Moreover, the TGI in the test on OVCAR-4 ovarian was above 10 µM; with SK-MEL-28 melanoma, above 100 µM; with SR leukemia it was 87.4 µM; in the test with SW-620 colon it was 93.1 µM; in the test with U251 CNS, 33.8 µM; in the test on UO-31 renal, above 100 µM.
Regarding `CCOC1CN=C(Nc2cccc3ccccc23)S1` (stereo not drawn), the TGI in the test with A549 NSCLC, with COLO 205 colon, in the test with HOP-62 NSCLC, in the test with HS 578T breast, in the test with MOLT-4 leukemia and in the test on NCI-H23 lung was above 10 µM in each case. In addition, the TGI in the test with OVCAR-4 ovarian, with SK-MEL-28 melanoma, in the test with SR leukemia, in the test with SW-620 colon and in the test on U251 CNS was above 10 µM each time.
